{"source": "patent US8563516B2", "about": "“Foxp3 peptide vaccine” (OncoTherapy Science, Inc., priority 2007, dated 2013)", "key": {"peptide-pulsed T2 cells": {"system": "peptide-pulsed T2 cells", "experiment": "IFN-gamma ELISA on expanded CTL lines, HLA-A02 peptides", "type": "cell-based, human", "conditions": "expanded cells of positive wells, FIG. 3A-D, 3F", "experimental": "CTLs were expanded in culture using a similar method as reported by Riddell, et al. (Walter et al., N Engl J Med 333(16): 1038-44, 1995; Riddell et al., Nat Med 2(2): 216-23, 1996 February). A total of 5×10^4 CTLs were resuspended in 25 ml of AIM-V/5% AS with 2 kinds of human B-lymphoblastoid cell lines, inactivated with MMC, in the presence of 40 ng/ml of anti-CD3 monoclonal antibody (Pharmingen). One day after initiating the cultures, 120 IU/ml of IL-2 were added to the cultures. The cultures were fed with fresh AIM-V/5% AS containing 30 IU/ml of IL-2 on days 5, 8 and 11.\n(§1) To examine the specific CTL activity, IFN-gamma ELISPOT assay and IFN-gamma ELISA were performed. Briefly, peptide-pulsed A24-LCL, T2 cell (1×10^4/well) or the cells endogenously expressing Foxp3 and HLA molecule was prepared as a stimulator cells. Cultured CTL lines in 48 wells were used as a responder cells. IFN-gamma ELISPOT assay and IFN-gamma ELISA were performed under manufacture procedure.\nThese cells in the positive wells were expanded and performed IFN-gamma ELISA assay."}, "[1]": {"system": "293T that transfected both Foxp3 and HLA-A02", "experiment": "Specific CTL activity against target cells expressing Foxp3 and HLA-A02", "type": "cell-based, human", "experimental": "as §1\nThe established CTL clone raised against these peptides were examined for their ability to recognize the target cells endogenously expressing Foxp3 and HLA-A*24 or 02. Specific CTL activity against 293T transfected both full length of Foxp3 gene and HLA-A*24 or 02 molecule, which is specific model for the target cells endogenously express Foxp3 and HLA-A*24 or 02, was tested using the CTL lines raised by Foxp3-A02-9-390 (SEQ ID NO: 15) and Foxp3-A02-9-252 (SEQ ID NO: 17) as effector cells. […] Furthermore, these peptides were epitope peptides, which can utilize vaccine targeting Foxp3 expressed T-regs."}, "4T1 breast cancer cells": {"system": "4T1 breast cancer cells", "experiment": "In vivo antitumor effects of vaccination, 4T1 tumor", "design": "species or system BALB/c mice", "conditions": "4T1 s.c. day 0, vaccination day 3 and 10, compared with control mice, FIG. 6", "experimental": "1×10^5 4T1 breast cancer cell lines were injected into BALB/c mice on day 0. IFA-conjugated with Foxp3-252_h (-open circle-), Foxp3-252_m (-solid square-), no peptide (-solid triangle-) was injected on day 3 and 10. As control of normal tumor growth, non-vaccinated mice (-x-) were also prepared in this assay.\n4T1 cells (1×10^5 per mouse) were injected s.c. into the right flank of BALB/c mice on day 0. Vaccination was done on days 3 and 10 using hFoxp3-252 (KLSAMQAHL: SEQ ID NO: 17) or mFoxp3-252 (KLGAMQAHL: SEQ ID NO: […]) IFA-conjugated peptides.\nTo examine the antitumor effects with peptide vaccination targeted Foxp3, in vivo therapeutic setting was attempted by using 4T1 tumor cells and BALB/c mice. The 4T1 breast cancer cells were injected s.c. into BALB/c mice on day 0, and then vaccination was done on these mice 3 and 10 days after the tumor challenge."}, "peptide pulsed T2 cells": {"system": "peptide pulsed T2 cells", "experiment": "IFN-gamma ELISPOT: CTL line induced with Foxp3-9-252-WT against T2 cells pulsed with substituted peptide", "type": "cell-based, human", "conditions": "FIG. 7A", "experimental": "IFN-gamma ELISPOT assay was performed using CTL line induced with Foxp3-9-252-WT peptide as responder cells and T2 cells pulsed Foxp3-9-252-WT or Foxp3-9-252-9V peptide as stimulator cells, respectively. T2 cells without peptide pulse were prepared as control. […] IFN-gamma ELISA assay was performed using CTL line induced with Foxp3-9-252-WT peptide as responder cells (1×10^5 cells/well) and Foxp3-9-252-WT (-solid circle-), Foxp3-9-252-9V (-open circle-) or HIV-A02 (-solid triangle-) peptide pulsed T2 cells as stimulator cells (1×10^4 cells/well). Peptide pulse of stimulator cells was conducted at 37 degree Celsius for 2 hours in each kind of peptide and peptide concentration.\nas §1\nAnd then the present inventers examined whether peptide-pulsed stimulator cells using these substitutions were recognized by CTLs generated with Foxp3-9-252-WT peptide."}}, "note": "Entries after “also recorded” stand apart in the source; their conditions may differ.", "data": [{"sequence": "KLSAMQAHL (peptide vaccine) [SEQ ID NO 17]", "values": [{"measurement": "IFN-gamma production of CTL lines stimulated with peptide, compared with the control", "setting": "peptide-pulsed T2 cells", "result": "potent IFN-gamma production"}, {"measurement": "specific CTL activity of CTL lines raised by peptide", "setting": "[1]; against 293T transfected with both Foxp3 and HLA-A02, FIG. 4A/4B", "result": "high specific CTL activity"}, {"measurement": "specific CTL activity against controls", "setting": "[1]; controls of FIG. 4A/4B", "result": "did not show significant specific CTL activity"}, {"measurement": "tumor growth / antitumor effect", "setting": "4T1 breast cancer cells; listed as Foxp3-252_h", "result": "tumor growth apparently reduced; also recorded: Significant difference of tumor growth suppression"}, {"measurement": "tumor growth / antitumor effect", "setting": "4T1 breast cancer cells; listed as hFoxp3-252", "result": "obviously anti-tumor effects; also recorded: superior to mFoxp3-252 peptide"}, {"measurement": "IFN-gamma production of Foxp3-9-252-WT induced CTLs against peptide pulsed T2 cells", "setting": "peptide pulsed T2 cells", "result": "produced IFN-gamma"}]}]}
